From patent publication US20040142317A1, “Use of amino acid transporter atbo,+ as a delivery system for drugs and prodrugs” (priority 2003, published 2004)
“And” between values parts separate entries of the source, which are not always exact repeats. Equal entries are not always repeated.

Experiments:
[1] = molecular target: T1, mouse ATB^0,+ (Mus musculus, UniProt Q9JMA9); assay: Inhibition of ATB0,+-specific [3H]-L-NNA transport by amino acids in HRPE cells; type: cell-based; settings: amino acids 5 mM; [3H]-L-NNA 10 μM
T1 sequence (Q9JMA9 1-638): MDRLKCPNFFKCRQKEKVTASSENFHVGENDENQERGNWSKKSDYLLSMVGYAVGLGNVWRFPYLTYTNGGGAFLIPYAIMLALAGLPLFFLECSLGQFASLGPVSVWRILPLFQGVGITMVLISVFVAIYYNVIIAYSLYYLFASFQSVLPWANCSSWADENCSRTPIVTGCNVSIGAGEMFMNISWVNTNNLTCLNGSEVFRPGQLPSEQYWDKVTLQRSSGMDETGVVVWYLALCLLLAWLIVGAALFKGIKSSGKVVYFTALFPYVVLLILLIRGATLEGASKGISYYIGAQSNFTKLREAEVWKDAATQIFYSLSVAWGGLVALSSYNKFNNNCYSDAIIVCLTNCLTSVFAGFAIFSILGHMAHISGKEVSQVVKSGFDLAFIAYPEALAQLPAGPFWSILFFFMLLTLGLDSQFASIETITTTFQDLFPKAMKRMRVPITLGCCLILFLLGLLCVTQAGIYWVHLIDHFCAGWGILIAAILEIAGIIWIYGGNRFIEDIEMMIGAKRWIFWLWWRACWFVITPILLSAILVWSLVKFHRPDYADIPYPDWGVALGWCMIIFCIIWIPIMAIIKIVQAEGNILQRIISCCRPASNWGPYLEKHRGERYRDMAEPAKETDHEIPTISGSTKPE

[2] = molecular target: T1, mouse ATB^0,+
[3] = molecular target: T1, mouse ATB^0,+; settings: for Current in X. laevis oocytes (nA), L-isomer: L-amino acid 1 mM; for Current in X. laevis oocytes (nA), L-isomer / Current in X. laevis oocytes (nA), D-isomer: NaCl pH 7.5; for inward current in the absence of Cl− (sodium gluconate) / inward current in the absence of Na+ (NMDG chloride) / Current in X. laevis oocytes: compound 1 mM; for Current in X. laevis oocytes: NaCl medium pH 7.5, voltage clamp; for Current in X. laevis oocytes (nA), D-isomer: D-amino acid 1 mM; for K0.5 (concentration inducing half-maximal current; Michaelis-Menten constant): oocytes, membrane potential −50 mV
[4] = molecular target: T1, mouse ATB^0,+; assay: Transport of radiolabeled substrates in HRPE cells expressing cloned mouse ATB0,+; type: cell-based; settings: HRPE cells
[5] = molecular target: T1, mouse ATB^0,+; settings: for effect on ATB^0,+-mediated glycine transport (in words): glycine 10 μM, HRPE cells
[6] = molecular target: T2, ATB^0 (Homo sapiens, UniProt Q15758); assay: cell-based
T2 sequence (Q15758 1-541): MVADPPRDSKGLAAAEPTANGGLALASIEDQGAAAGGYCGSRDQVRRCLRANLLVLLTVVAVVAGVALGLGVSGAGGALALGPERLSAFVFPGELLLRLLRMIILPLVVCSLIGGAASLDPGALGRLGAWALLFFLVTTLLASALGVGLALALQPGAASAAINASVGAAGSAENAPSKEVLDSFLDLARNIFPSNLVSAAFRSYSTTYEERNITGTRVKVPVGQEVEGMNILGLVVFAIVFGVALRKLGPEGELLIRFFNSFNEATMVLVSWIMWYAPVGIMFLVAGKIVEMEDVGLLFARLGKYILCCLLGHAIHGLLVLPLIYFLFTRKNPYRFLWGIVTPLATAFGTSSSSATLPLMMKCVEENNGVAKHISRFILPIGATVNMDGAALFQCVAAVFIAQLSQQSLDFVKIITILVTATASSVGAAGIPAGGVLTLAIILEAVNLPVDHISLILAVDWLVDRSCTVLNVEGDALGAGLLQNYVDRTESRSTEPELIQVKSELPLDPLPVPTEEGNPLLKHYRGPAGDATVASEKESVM

## N=C(N)NCCC[C@H](N)C(=O)O [Arginine]
[1]
  inhibition of ATB^0,+-specific L-NNA transport: inhibition
[2]
  activity: 30%
[3]
  Current in X. laevis oocytes (nA), L-isomer: 339 ± 35 nA
  inward current in the absence of Cl− (sodium gluconate): No measurable current
  inward current in the absence of Na+ (NMDG chloride): No measurable current
  Current in X. laevis oocytes: 382 ± 57 nA

## NC(=O)C[C@H](N)C(=O)O [Asparagine, L-Asparagine]
[3]
  Current in X. laevis oocytes (nA), L-isomer: 394 ± 67 nA

## NC(=O)NCCC[C@H](N)C(=O)O [Citrulline]
[3]
  Current in X. laevis oocytes: 498 ± 114 nA

## C[C@@H](N)C(=O)O [D-Alanine, D-alanine]
[3]
  Current in X. laevis oocytes (nA), D-isomer: 402 ± 39 nA

## N=C(N)NCCC[C@H](N)C(=O)O [D-Arginine, Arginine]
[3]
  Current in X. laevis oocytes (nA), D-isomer: 6 ± 1 nA

## NC(=O)C[C@H](N)C(=O)O [D-Asparagine, Asparagine]
[3]
  Current in X. laevis oocytes (nA), D-isomer: 3 ± 2 nA

## NC(=O)CC[C@@H](N)C(=O)O [D-Glutamine, D-glutamine]
[3]
  Current in X. laevis oocytes (nA), D-isomer: 16 ± 11 nA

## N[C@H](Cc1c[nH]cn1)C(=O)O [D-Histidine, D-histidine]
[3]
  Current in X. laevis oocytes (nA), D-isomer: 29 ± 6 nA

## CC[C@H](C)[C@H](N)C(=O)O [D-Isoleucine, Isoleucine]
[3]
  Current in X. laevis oocytes (nA), D-isomer: 4 ± 4 nA

## CC(C)C[C@@H](N)C(=O)O [D-Leucine, D-leucine]
[3]
  Current in X. laevis oocytes (nA), D-isomer: 161 ± 25 nA

## NCCCC[C@H](N)C(=O)O [D-Lysine, Lysine]
[3]
  Current in X. laevis oocytes (nA), D-isomer: 9 ± 9 nA

## CSCC[C@@H](N)C(=O)O [D-Methionine, D-methionine]
[3]
  Current in X. laevis oocytes (nA), D-isomer: 213 ± 15 nA

## N[C@H](Cc1ccccc1)C(=O)O [D-Phenylalanine, D-phenylalanine]
[3]
  Current in X. laevis oocytes (nA), D-isomer: 24 ± 24 nA

## C[C@H](O)[C@@H](N)C(=O)O [D-Threonine, D-threonine]
[3]
  Current in X. laevis oocytes (nA), D-isomer: 41 ± 5 nA

## N[C@H](Cc1c[nH]c2ccccc12)C(=O)O [D-Tryptophan, D-tryptophan]
[3]
  Current in X. laevis oocytes (nA), D-isomer: 157 ± 23 nA

## CC(C)[C@H](N)C(=O)O [D-Valine, Valine]
[3]
  Current in X. laevis oocytes (nA), D-isomer: 4 ± 3 nA

## NC(=O)CC[C@H](N)C(=O)O [Glutamine, L-Glutamine]
[3]
  Current in X. laevis oocytes (nA), L-isomer: 453 ± 53 nA

## NCC(=O)O [Glycine]
[4]
  Hill coefficient for Na+ activation of substrate transport: 2.0±0.1
  K0.5 for Cl− in substrate transport: 18 ± 8 mM
  K0.5 for Na+ in substrate transport: 25 ± 1 mM
  Michaelis-Menten constant (Kt) of transport via mouse ATB^0,+: 210 ± 18 µM
[4]; radiolabeled substrate
  transport in ATB^0,+ cDNA-transfected cells compared to vector-transfected cells: 38 fold and 30 fold
[1]
  inhibition of ATB^0,+-specific L-NNA transport: inhibition

## N[C@@H](Cc1c[nH]cn1)C(=O)O [Histidine]
[3]
  Current in X. laevis oocytes (nA), L-isomer: 410 ± 64 nA

## CC[C@H](C)[C@H](N)C(=O)O [Isoleucine]
[3]
  Current in X. laevis oocytes (nA), L-isomer: 117 ± 16 nA

## N[C@@H](CC(=O)OCc1ccccc1)C(=O)O [L-Aspartate β-benzyl ester]
[5]
  IC50: 70 ± 8 µM
[5]; from IC50 values
  potency relative to benzyl ester of glutamate: about 2 fold

## N=C(N)NOCC[C@H](N)C(=O)O [L-Canavanine]
[2]
  activity: 24%
  inhibition: 75%
[3]
  Current in X. laevis oocytes: 269 ± 73 nA

## N[C@@H](CCC(=O)OCc1ccccc1)C(=O)O [L-Glutamate γ-benzyl ester]
[5]
  IC50: 156 ± 12 µM

## CSC(N)=NCCC[C@H](N)C(=O)O [L-MTC]
[3]
  inward current in the absence of Cl− (sodium gluconate): no measurable currents
  inward current in the absence of Na+ (NMDG chloride): no measurable currents
  Current in X. laevis oocytes: 116±34 nA and 118 ± 34 nA
  K0.5 (concentration inducing half-maximal current; Michaelis-Menten constant): 1.36 ± 0.08 mM

## CSCC[C@H](N)C(=O)O [L-Methionine, Methionine]
[3]
  Current in X. laevis oocytes (nA), L-isomer: 278 ± 26 nA

## NC(=NCCC[C@H](N)C(=O)OCc1ccccc1)N[N+](=O)[O-] [L-NABE]
[3]
  Current in X. laevis oocytes: 16 ± 2 nA

## COC(=O)[C@@H](N)CCCNC(=N)N[N+](=O)[O-] [L-NAME]
[3]
  Current in X. laevis oocytes: 11 ± 2 nA

## CN(C)C(N)=NCCC[C@H](N)C(=O)O [L-NDMA]
[3]
  Current in X. laevis oocytes: 85 ± 15 nA

## CC(=N)NCCCC[C@H](N)C(=O)O [L-NIL]
[3]
  inward current in the absence of Cl− (sodium gluconate): ~10 nA
  inward current in the absence of Na+ (NMDG chloride): no measurable inward current
  Current in X. laevis oocytes: 89 ± 18 nA
  K0.5 (concentration inducing half-maximal current; Michaelis-Menten constant): 2.72 ± 0.29 mM

## CC(=N)NCCC[C@H](N)C(=O)O [L-NIO]
[3]
  Current in X. laevis oocytes: 71 ± 16 nA
  K0.5 (concentration inducing half-maximal current; Michaelis-Menten constant): 2.24 ± 0.35 mM

## CCNC(=N)NCCC[C@H](N)C(=O)O [L-NMEA]
[3]
  Current in X. laevis oocytes: 138 ± 16 nA

## CNC(=N)NCCC[C@H](N)C(=O)O [L-NMMA]
[2]
  activity: 36%
[3]
  Current in X. laevis oocytes: 411 ± 76 nA

## N=C(NCCC[C@H](N)C(=O)O)N[N+](=O)[O-] [L-NNA, N^ω-nitro-L-arginine]
[4]; radiolabeled substrate
  Michaelis-Menten constant (Kt) of transport via mouse ATB^0,+: 750 ± 100 µM
  transport in ATB^0,+ cDNA-transfected cells compared to vector-transfected cells: 4 fold
[2]
  activity: 21%
[3]
  Current in X. laevis oocytes: 200 ± 92 nA
[5]
  IC50: 560 ± 40 µM

## NC(=S)NCCC[C@H](N)C(=O)O [L-TC]
[3]
  Current in X. laevis oocytes: 497 ± 104 nA

## CC(C)[C@H](N)C(=O)O [L-Valine, Valine]
[3]
  Current in X. laevis oocytes (nA), L-isomer: 310 ± 24 nA

## CC(C)C[C@H](N)C(=O)O [Leucine]
[3]
  Current in X. laevis oocytes (nA), L-isomer: 187 ± 14 nA

## NCCCC[C@H](N)C(=O)O [Lysine]
[3]
  Current in X. laevis oocytes (nA), L-isomer: 321 ± 34 nA
  Current in X. laevis oocytes: 545 ± 95 nA

## CNC(C)(C)C(=O)O [MeAIB]
[1]
  inhibition of ATB^0,+-specific L-NNA transport: did not inhibit

## NCCC[C@H](N)C(=O)O [Ornithine]
[3]
  Current in X. laevis oocytes: 131 ± 27 nA

## N[C@@H](Cc1ccccc1)C(=O)O [Phenylalanine]
[3]
  Current in X. laevis oocytes (nA), L-isomer: 275 ± 58 nA
[6]
  Ki: 4230 ± 999 µM
[5]
  Ki: 68.6 ± 2.4 µM

## N[C@@H](CO)C(=O)O [Serine]
[1]
  inhibition of ATB^0,+-specific L-NNA transport: inhibition
[3]
  Current in X. laevis oocytes (nA), L-isomer: 470 ± 42 nA

## C[C@@H](O)[C@H](N)C(=O)O [Threonine]
[3]
  Current in X. laevis oocytes (nA), L-isomer: 233 ± 12 nA

## N[C@@H](Cc1c[nH]c2ccccc12)C(=O)O [Tryptophan]
[3]
  Current in X. laevis oocytes (nA), L-isomer: 112 ± 4 nA

## C[N+](C)(C)CC(=O)O [betaine]
[5]
  effect on ATB^0,+-mediated glycine transport (in words): little or no effect

## CC(C)[C@H](N)C(=O)OCCOCn1cnc2c(=O)[nH]c(N)nc21 [valacyclovir, L-valine α-ester of acyclovir]
[4]; [14C]phenylglycine 10 μM or [8-3H]-valacyclovir 1.25 μM
  transport in ATB^0,+-expressing cells versus vector-transfected cells (in words): three times higher

## NCCCC(=O)O [γ-Aminobutyrate, γ-aminobutyrate]
[5]
  effect on ATB^0,+-mediated glycine transport (in words): little or no effect
